{"source": "patent US20170190671A1", "about": "“BIS(ARYL)CATECHOL DERIVATIVES AS HERBICIDES” (E I DU PONT DE NEMOURS AND COMPANY, priority 2014, published 2017)", "format_in_all_cases": "in vivo", "key": {"[1]": {"tested_on": "Italian ryegrass (Lolium multiflorum)", "assay": "Test A preemergence", "details": "Lolium multiflorum, pre-emergence, 240 h, 0 to 100 scale (0 no effect, 100 complete control), read-out: Ryegrass, Italian plant response rating", "procedure,_shortened": "(§1)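 Greenhouse pot test, loam/sand soil. Formulation: non-phytotoxic solvent mix plus surfactant. Pre: directed spray onto soil after sowing. Post: plants at 1–2 leaf, 2–10 cm. Rated visually vs untreated controls at ~10 d, 0 (no effect) to 100 (complete control).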"}, "[2]": {"tested_on": "barnyardgrass (Echinochloa crus-galli)", "assay": "Test A preemergence", "details": "Echinochloa crus-galli, pre-emergence, 240 h", "procedure,_shortened": "as §1"}, "[3]": {"tested_on": "pigweed (Amaranthus retroflexus)", "assay": "Test A preemergence", "details": "Amaranthus retroflexus, pre-emergence, 240 h, 0 to 100 scale (0 no effect, 100 complete control), read-out: Pigweed plant response rating", "procedure,_shortened": "as §1"}, "[4]": {"tested_on": "giant foxtail (Setaria faberii)", "assay": "Test A preemergence", "details": "Setaria faberi, pre-emergence, 240 h, 0 to 100 scale (0 no effect, 100 complete control), read-out: Foxtail, Giant plant response rating", "procedure,_shortened": "as §1"}, "[5]": {"tested_on": "ragweed (common ragweed, Ambrosia elatior)", "assay": "Test A preemergence", "details": "Ambrosia artemisiifolia, pre-emergence, 240 h, 0 to 100 scale (0 no effect, 100 complete control), read-out: Ragweed plant response rating", "procedure,_shortened": "as §1"}, "kochia (Kochia scoparia) [6]": {"tested_on": "kochia (Kochia scoparia)", "assay": "Test A preemergence", "details": "Bassia scoparia, pre-emergence, 240 h, 0 to 100 scale (0 no effect, 100 complete control), read-out: Kochia plant response rating", "procedure,_shortened": "as §1"}, "[7]": {"tested_on": "pigweed (Amaranthus retroflexus)", "assay": "Test C postemergence", "details": "Amaranthus retroflexus, post-emergence, 336 h, Postemergence, scale 0 to 100, read-out: Plant response rating, Pigweed", "procedure,_shortened": "(§2)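 Seeds in loam-sand soil were treated preemergence, and plants at the 1- to 4-leaf stage (2-18 cm) in peat-based medium were sprayed postemergence, with test chemicals in a non-phytotoxic solvent containing surfactant. After 13-15 days in a greenhouse, response was rated visually against controls from 0 (no effect) to 100 (complete control).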"}, "kochia (Kochia scoparia) [8]": {"tested_on": "kochia (Kochia scoparia)", "assay": "Test C postemergence", "details": "Bassia scoparia, post-emergence, Postemergence, scale 0 to 100, read-out: Plant response rating, Kochia", "procedure,_shortened": "as §2"}, "[9]": {"tested_on": "wheat (Triticum aestivum)", "assay": "Test A postemergence", "details": "Triticum aestivum, post-emergence, 240 h, 0 to 100 scale, read-out: Plant response rating, Wheat", "procedure,_shortened": "as §1"}, "[10]": {"tested_on": "galium (catchweed bedstraw, Galium aparine)", "assay": "Test A postemergence", "details": "Galium, post-emergence, 240 h, 0 to 100 scale, read-out: Plant response rating, Galium", "procedure,_shortened": "as §1"}, "[11]": {"tested_on": "Italian ryegrass (Lolium multiflorum)", "assay": "Test A postemergence", "details": "Lolium multiflorum, post-emergence, 240 h, 0 to 100 scale, read-out: Plant response rating, Ryegrass, Italian", "procedure,_shortened": "as §1"}, "[12]": {"tested_on": "barnyardgrass (Echinochloa crus-galli)", "assay": "Test A postemergence", "details": "Echinochloa crus-galli, post-emergence, 240 h, 0 to 100 scale, read-out: Plant response rating, Barnyardgrass", "procedure,_shortened": "as §1"}, "corn (Zea mays)": {"tested_on": "corn (Zea mays)", "assay": "Test A postemergence", "details": "Zea mays, post-emergence, 240 h, 0 to 100 scale", "procedure,_shortened": "as §1"}, "[13]": {"tested_on": "blackgrass (Alopecurus myosuroides)", "assay": "Test A postemergence", "details": "Alopecurus myosuroides, post-emergence, 240 h, 0 to 100 scale, read-out: Plant response rating, Blackgrass", "procedure,_shortened": "as §1"}, "[14]": {"tested_on": "pigweed (Amaranthus retroflexus)", "assay": "Test A postemergence", "details": "Amaranthus retroflexus, post-emergence, 240 h, 0 to 100 scale, read-out: Plant response rating, Pigweed", "procedure,_shortened": "as §1"}, "[15]": {"tested_on": "giant foxtail (Setaria faberii)", "assay": "Test A postemergence", "details": "Setaria faberi, post-emergence, 240 h, 0 to 100 scale, read-out: Plant response rating, Foxtail, Giant", "procedure,_shortened": "as §1"}, "[16]": {"tested_on": "ragweed (common ragweed, Ambrosia elatior)", "assay": "Test A postemergence", "details": "Ambrosia artemisiifolia, post-emergence, 240 h, 0 to 100 scale, read-out: Plant response rating, Ragweed", "procedure,_shortened": "as §1"}, "kochia (Kochia scoparia) [17]": {"tested_on": "kochia (Kochia scoparia)", "assay": "Test A postemergence", "details": "Bassia scoparia, post-emergence, 240 h, 0 to 100 scale, read-out: Plant response rating, Kochia", "procedure,_shortened": "as §1"}, "[18]": {"tested_on": "sedge, umbrella (small-flower umbrella sedge, Cyperus difformis)", "assay": "Test B flooded paddy", "details": "Cyperus difformis, 336 h; 250 g ai/ha, Flood, 13 to 15 days, scale 0 (no effect) to 100 (complete control); read-out: Plant response rating, Sedge, Umbrella", "procedure,_shortened": "(§3)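 Ratings were visual and made relative to untreated controls after 13 to 15 greenhouse days.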"}, "[19]": {"tested_on": "ducksalad (Heteranthera limosa)", "assay": "Test B flooded paddy", "details": "Heteranthera limosa, 336 h; 250 g ai/ha, Flood, 13 to 15 days, scale 0 (no effect) to 100 (complete control); read-out: Plant response rating, Ducksalad", "procedure,_shortened": "as §3"}, "[20]": {"tested_on": "barnyardgrass (Echinochloa crus-galli)", "assay": "Test B flooded paddy", "details": "Echinochloa crus-galli, 336 h; 250 g ai/ha, Flood, 13 to 15 days, scale 0 (no effect) to 100 (complete control); read-out: Plant response rating, Barnyardgrass", "procedure,_shortened": "as §3"}, "rice (Oryza sativa)": {"tested_on": "rice (Oryza sativa)", "assay": "Test B flooded paddy", "details": "Oryza sativa, 336 h; 250 g ai/ha, Flood, 13 to 15 days, scale 0 (no effect) to 100 (complete control); read-out: Plant response rating, Rice", "procedure,_shortened": "as §3"}}}
{"compound": "N#Cc1cccc(Oc2ncc(Cl)cn2)c1Oc1cnc(Cl)cn1", "note": "[Compound 32, 2-[(5-chloro-2-pyrazinyl)oxy]-3-[(5-chloro-2-pyrimidinyl)oxy]benzonitrile]", "values": [{"measurement": "pest or weed control at 31 g/ha", "setting": "[1]; 31 g ai/ha", "result": 10, "unit": "%"}, {"measurement": "pest or weed control at 125 g/ha", "setting": "[1]; 125 g ai/ha", "result": 60, "unit": "%"}, {"measurement": "pest or weed control at 31 g/ha", "setting": "[2]; 31 g ai/ha, 0 to 100 scale (0 no effect, 100 complete control), read-out: Barnyardgrass plant response rating", "result": 30, "unit": "%"}, {"measurement": "pest or weed control at 125 g/ha", "setting": "[2]; 125 g ai/ha, 0 to 100 scale, read-out: Plant response rating, Barnyardgrass", "result": 90, "unit": "%"}, {"measurement": "pest or weed control at 31 g/ha", "setting": "[3]; 31 g ai/ha", "result": 100, "unit": "%"}, {"measurement": "pest or weed control at 125 g/ha", "setting": "[3]; 125 g ai/ha", "result": 100, "unit": "%"}, {"measurement": "pest or weed control at 31 g/ha", "setting": "[4]; 31 g ai/ha", "result": 100, "unit": "%"}, {"measurement": "pest or weed control at 125 g/ha", "setting": "[4]; 125 g ai/ha", "result": 100, "unit": "%"}, {"measurement": "pest or weed control at 31 g/ha", "setting": "[5]; 31 g ai/ha", "result": 0, "unit": "%"}, {"measurement": "pest or weed control at 125 g/ha", "setting": "[5]; 125 g ai/ha", "result": 30, "unit": "%"}, {"measurement": "pest or weed control at 31 g/ha", "setting": "kochia (Kochia scoparia) [6]; 31 g ai/ha", "result": 100, "unit": "%"}, {"measurement": "pest or weed control at 125 g/ha", "setting": "kochia (Kochia scoparia) [6]; 125 g ai/ha", "result": 100, "unit": "%"}, {"measurement": "pest or weed control at 31 g/ha", "setting": "[7]; 31 g ai/ha", "result": 85, "unit": "%"}, {"measurement": "pest or weed control at 62 g/ha", "setting": "[7]; 62 g ai/ha", "result": 90, "unit": "%"}, {"measurement": "pest or weed control at 125 g/ha", "setting": "[7]; 125 g ai/ha", "result": 95, "unit": "%"}, {"measurement": "pest or weed control at 16 g/ha", "setting": "kochia (Kochia scoparia) [8]; 16 g ai/ha", "result": 90, "unit": "%"}, {"measurement": "pest or weed control at 31 g/ha", "setting": "kochia (Kochia scoparia) [8]; 31 g ai/ha", "result": 90, "unit": "%"}, {"measurement": "pest or weed control at 62 g/ha", "setting": "kochia (Kochia scoparia) [8]; 62 g ai/ha", "result": 90, "unit": "%"}, {"measurement": "pest or weed control at 125 g/ha", "setting": "kochia (Kochia scoparia) [8]; 125 g ai/ha", "result": 90, "unit": "%"}, {"measurement": "plant injury at 31 g/ha", "setting": "[9]; 31 g ai/ha", "result": 0, "unit": "%"}, {"measurement": "plant injury at 125 g/ha", "setting": "[9]; 125 g ai/ha", "result": 30, "unit": "%"}, {"measurement": "pest or weed control at 31 g/ha", "setting": "[10]; 31 g ai/ha", "result": 90, "unit": "%"}, {"measurement": "pest or weed control at 125 g/ha", "setting": "[10]; 125 g ai/ha", "result": 90, "unit": "%"}, {"measurement": "pest or weed control at 31 g/ha", "setting": "[11]; 31 g ai/ha", "result": 10, "unit": "%"}, {"measurement": "pest or weed control at 125 g/ha", "setting": "[11]; 125 g ai/ha", "result": 50, "unit": "%"}, {"measurement": "pest or weed control at 31 g/ha", "setting": "[12]; 31 g ai/ha", "result": 40, "unit": "%"}, {"measurement": "pest or weed control at 125 g/ha", "setting": "[12]; 125 g ai/ha", "result": 100, "unit": "%"}, {"measurement": "Corn plant response rating (crop injury, 0 = no effect, 100 = complete kill) at 31 g/ha", "setting": "corn (Zea mays); 31 g ai/ha", "result": 30, "unit": "%"}, {"measurement": "Corn plant response rating (crop injury, 0 = no effect, 100 = complete kill) at 125 g/ha", "setting": "corn (Zea mays); 125 g ai/ha", "result": 50, "unit": "%"}, {"measurement": "pest or weed control at 31 g/ha", "setting": "[13]; 31 g ai/ha", "result": 60, "unit": "%"}, {"measurement": "pest or weed control at 125 g/ha", "setting": "[13]; 125 g ai/ha", "result": 70, "unit": "%"}, {"measurement": "pest or weed control at 31 g/ha", "setting": "[14]; 31 g ai/ha", "result": 100, "unit": "%"}, {"measurement": "pest or weed control at 125 g/ha", "setting": "[14]; 125 g ai/ha", "result": 100, "unit": "%"}, {"measurement": "pest or weed control at 31 g/ha", "setting": "[15]; 31 g ai/ha", "result": 50, "unit": "%"}, {"measurement": "pest or weed control at 125 g/ha", "setting": "[15]; 125 g ai/ha", "result": 90, "unit": "%"}, {"measurement": "pest or weed control at 31 g/ha", "setting": "[16]; 31 g ai/ha", "result": 10, "unit": "%"}, {"measurement": "pest or weed control at 125 g/ha", "setting": "[16]; 125 g ai/ha", "result": 30, "unit": "%"}, {"measurement": "pest or weed control at 31 g/ha", "setting": "kochia (Kochia scoparia) [17]; 31 g ai/ha", "result": 90, "unit": "%"}, {"measurement": "pest or weed control at 125 g/ha", "setting": "kochia (Kochia scoparia) [17]; 125 g ai/ha", "result": 90, "unit": "%"}, {"measurement": "pest or weed control at 250 g/ha", "setting": "[18]", "result": 90, "unit": "%"}, {"measurement": "pest or weed control at 250 g/ha", "setting": "[19]", "result": 75, "unit": "%"}, {"measurement": "pest or weed control at 250 g/ha", "setting": "[20]", "result": 70, "unit": "%"}, {"measurement": "plant injury at 250 g/ha", "setting": "rice (Oryza sativa)", "result": 40, "unit": "%"}]}
